Common to all, as to assay: cell-based
The target of experiment [1] is T1, JHR (GCE:TAI) (Drosophila melanogaster, UniProt Q9VXW7). The conditions noted are these: Drosophila Kc167, read-out: JHR Efficacy [%].
In experiment [2] the target is T2, human AHR (Homo sapiens, UniProt P35869). The arrangement: species or system HepG2 (AZ-AHR). The conditions noted are these: HepG2, read-out: AHR Efficacy [%], AGO.
The target in experiment [3] is T1, JHR (GCE:TAI). The conditions noted are these: Drosophila Kc167, read-out: JHR Efficacy [%]. This is another data set of the same source.
Experiment [4] addresses T2, human AHR. Details: species or system HepG2 (AZ-AHR). The conditions noted are these: HepG2, read-out: AHR Efficacy [%].

Where two headings read alike, the source gives them in different places. *1 amine or outer side, *2 acyl side, *3 side chain or, on linkers, in order; H or OH if unused. Where a SMILES comes first, the peptide text is derived from it. [ ]: non-standard residue; d: D form. The star is where a group is joined. X1 = Cc1nc(N[*:1])sc1-c1cc(C(=O)[*:2])n[nH]1; Bz = O=C(c1ccccc1)*

T2 sequence (P35869 11-848): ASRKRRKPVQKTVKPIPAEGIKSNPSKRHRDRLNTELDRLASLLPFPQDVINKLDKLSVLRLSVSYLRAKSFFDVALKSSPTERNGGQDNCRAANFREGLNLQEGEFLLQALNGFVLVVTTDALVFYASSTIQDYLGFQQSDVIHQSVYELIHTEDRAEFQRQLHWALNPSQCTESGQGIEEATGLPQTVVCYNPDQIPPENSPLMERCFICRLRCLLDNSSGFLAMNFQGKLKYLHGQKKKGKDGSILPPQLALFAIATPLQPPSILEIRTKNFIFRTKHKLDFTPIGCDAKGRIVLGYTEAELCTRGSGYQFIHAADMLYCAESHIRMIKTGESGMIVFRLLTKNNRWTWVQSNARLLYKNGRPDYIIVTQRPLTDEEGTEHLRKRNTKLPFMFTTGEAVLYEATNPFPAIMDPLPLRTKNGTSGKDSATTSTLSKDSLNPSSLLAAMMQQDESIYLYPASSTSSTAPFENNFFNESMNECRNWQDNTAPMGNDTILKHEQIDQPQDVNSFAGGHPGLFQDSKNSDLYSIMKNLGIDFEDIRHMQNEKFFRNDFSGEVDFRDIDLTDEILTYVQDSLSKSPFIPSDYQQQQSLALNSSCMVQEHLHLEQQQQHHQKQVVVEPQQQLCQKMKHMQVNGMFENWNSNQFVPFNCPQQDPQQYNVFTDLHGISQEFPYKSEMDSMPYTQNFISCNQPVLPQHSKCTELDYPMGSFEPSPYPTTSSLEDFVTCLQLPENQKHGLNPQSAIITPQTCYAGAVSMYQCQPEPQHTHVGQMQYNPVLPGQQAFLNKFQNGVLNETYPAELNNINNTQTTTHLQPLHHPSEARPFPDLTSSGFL
T2 sequence (P27540 2-789 partner): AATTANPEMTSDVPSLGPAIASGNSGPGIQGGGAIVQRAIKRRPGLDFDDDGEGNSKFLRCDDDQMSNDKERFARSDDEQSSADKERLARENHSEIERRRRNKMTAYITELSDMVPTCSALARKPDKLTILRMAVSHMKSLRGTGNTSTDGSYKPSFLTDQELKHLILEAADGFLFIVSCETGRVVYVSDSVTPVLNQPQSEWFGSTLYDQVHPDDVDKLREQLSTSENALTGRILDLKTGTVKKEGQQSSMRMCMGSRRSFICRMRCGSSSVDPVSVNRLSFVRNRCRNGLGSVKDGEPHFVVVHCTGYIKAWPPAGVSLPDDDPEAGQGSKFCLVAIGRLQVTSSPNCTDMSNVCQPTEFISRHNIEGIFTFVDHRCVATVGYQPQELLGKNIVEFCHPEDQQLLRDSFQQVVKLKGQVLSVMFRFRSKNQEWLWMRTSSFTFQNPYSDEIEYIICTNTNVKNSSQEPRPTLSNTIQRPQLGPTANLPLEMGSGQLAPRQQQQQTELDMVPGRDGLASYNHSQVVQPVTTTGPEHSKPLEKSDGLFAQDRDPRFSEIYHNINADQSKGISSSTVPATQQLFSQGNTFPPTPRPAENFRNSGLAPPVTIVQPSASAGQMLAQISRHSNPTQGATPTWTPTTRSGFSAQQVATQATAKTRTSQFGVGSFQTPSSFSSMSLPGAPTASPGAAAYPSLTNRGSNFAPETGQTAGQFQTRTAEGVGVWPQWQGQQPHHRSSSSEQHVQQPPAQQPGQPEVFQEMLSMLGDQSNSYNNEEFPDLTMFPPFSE
T1 sequence (Q9VXW7 1-959): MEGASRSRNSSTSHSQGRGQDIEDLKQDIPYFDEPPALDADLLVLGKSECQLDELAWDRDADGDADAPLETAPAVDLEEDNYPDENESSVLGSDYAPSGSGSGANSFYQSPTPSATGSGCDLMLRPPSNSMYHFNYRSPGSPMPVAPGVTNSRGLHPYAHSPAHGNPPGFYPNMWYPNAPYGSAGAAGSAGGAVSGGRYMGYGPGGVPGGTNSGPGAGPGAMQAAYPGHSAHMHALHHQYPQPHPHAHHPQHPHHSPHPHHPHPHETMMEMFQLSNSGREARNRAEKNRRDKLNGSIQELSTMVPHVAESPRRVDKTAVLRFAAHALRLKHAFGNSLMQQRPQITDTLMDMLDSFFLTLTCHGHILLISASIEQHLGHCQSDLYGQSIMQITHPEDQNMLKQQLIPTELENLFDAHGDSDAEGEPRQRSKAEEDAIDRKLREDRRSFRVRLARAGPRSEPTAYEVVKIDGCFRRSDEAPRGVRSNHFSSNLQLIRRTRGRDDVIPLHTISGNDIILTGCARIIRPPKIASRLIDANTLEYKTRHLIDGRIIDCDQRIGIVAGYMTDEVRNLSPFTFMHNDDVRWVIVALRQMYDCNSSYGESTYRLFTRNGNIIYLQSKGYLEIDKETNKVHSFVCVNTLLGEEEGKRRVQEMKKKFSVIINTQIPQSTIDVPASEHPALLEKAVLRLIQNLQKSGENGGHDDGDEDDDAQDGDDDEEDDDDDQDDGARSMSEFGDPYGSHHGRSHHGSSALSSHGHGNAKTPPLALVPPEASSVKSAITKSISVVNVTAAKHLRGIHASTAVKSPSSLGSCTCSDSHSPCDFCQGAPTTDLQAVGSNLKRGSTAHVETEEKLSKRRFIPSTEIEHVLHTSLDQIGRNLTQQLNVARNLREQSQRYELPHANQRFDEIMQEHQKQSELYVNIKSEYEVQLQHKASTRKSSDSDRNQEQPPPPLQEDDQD
T1 sequence (Q9VLD9 1-2026 partner): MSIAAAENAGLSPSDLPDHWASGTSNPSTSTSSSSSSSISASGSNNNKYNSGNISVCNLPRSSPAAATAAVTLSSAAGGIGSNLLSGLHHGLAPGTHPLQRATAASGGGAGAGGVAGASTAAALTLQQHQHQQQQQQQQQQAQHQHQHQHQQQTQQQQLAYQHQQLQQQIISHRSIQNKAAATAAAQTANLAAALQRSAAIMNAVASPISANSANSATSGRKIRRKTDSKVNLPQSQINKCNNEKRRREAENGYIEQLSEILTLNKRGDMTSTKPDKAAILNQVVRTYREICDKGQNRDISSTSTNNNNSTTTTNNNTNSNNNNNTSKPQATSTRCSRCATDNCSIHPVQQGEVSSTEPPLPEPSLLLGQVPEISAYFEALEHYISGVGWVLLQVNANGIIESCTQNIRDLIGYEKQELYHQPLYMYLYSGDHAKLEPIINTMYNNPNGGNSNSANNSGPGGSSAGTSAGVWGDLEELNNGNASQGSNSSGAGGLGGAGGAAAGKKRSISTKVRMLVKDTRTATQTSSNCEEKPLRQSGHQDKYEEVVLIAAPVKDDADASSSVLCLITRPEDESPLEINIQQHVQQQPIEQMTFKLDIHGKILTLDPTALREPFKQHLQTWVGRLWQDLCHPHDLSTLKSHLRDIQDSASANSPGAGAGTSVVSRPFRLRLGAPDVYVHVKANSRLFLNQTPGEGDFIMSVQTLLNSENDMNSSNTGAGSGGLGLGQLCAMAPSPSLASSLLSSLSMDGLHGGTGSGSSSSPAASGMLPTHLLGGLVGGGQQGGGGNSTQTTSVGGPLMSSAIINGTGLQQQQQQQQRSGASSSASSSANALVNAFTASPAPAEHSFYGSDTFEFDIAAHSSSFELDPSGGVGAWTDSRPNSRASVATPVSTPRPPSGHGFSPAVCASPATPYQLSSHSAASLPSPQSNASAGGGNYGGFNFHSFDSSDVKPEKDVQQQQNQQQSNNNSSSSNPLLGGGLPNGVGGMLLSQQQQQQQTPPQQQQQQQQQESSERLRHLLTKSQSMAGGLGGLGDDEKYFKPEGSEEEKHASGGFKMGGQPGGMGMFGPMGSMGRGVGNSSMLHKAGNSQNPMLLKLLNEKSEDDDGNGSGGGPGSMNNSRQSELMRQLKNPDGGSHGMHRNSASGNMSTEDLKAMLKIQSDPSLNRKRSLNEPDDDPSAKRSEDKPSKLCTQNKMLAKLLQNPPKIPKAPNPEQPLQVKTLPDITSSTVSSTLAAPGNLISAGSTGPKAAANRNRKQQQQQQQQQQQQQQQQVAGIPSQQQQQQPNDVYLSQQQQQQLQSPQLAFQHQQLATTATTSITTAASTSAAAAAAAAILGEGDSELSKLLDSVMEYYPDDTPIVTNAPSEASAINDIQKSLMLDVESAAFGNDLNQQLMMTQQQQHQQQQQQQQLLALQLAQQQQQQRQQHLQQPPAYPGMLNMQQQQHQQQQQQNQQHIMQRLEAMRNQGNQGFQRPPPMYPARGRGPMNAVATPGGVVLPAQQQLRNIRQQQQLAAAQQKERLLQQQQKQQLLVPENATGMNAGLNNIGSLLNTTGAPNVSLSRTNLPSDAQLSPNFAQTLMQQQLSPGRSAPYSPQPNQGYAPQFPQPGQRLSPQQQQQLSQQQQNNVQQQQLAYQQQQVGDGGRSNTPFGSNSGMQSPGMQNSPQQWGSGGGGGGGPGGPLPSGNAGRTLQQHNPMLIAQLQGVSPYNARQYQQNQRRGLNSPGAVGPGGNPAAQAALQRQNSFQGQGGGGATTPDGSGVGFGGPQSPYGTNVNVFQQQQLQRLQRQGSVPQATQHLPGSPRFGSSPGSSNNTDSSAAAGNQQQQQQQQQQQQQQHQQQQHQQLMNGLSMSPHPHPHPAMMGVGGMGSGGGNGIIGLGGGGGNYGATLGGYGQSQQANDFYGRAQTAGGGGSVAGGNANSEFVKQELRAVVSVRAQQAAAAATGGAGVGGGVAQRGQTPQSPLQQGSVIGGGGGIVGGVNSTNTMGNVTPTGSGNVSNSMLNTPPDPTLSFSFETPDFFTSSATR

For `Cc1nc(-c2ccsc2)sc1C(=O)Nc1cnn(C)c1` [cmpd 1.1], the results for the Emax at JHR (GCE:TAI) [1] and at human AHR [2] were 183% and 19%, respectively.
With `O=C(CCSc1nnc2ccccn12)NC(=O)NCc1ccccc1` [cmpd 1.2], the Emax on JHR (GCE:TAI) [3] was determined as 83%.
Regarding `Cc1nc(NC(=O)c2ccccc2)sc1-c1cc(C(=O)NCC(=O)N[C@H](CCCN=C(N)N)C(=O)NCC(=O)N[C@H](CC(=O)O)C(=O)N[C@H](CC(=O)O)C(=O)N[C@H](CC(=O)O)C(N)=O)n[nH]1` [cmpd 2.1] (Bz-[X1]G[dR]G[dD][dD][dD]-NH2), the Emax on JHR (GCE:TAI) [1] is 143%; on human AHR [2], 52%.
With `O=C(Nc1ccc(-c2nccs2)cc1)c1ccccc1C(F)(F)F` [cmpd 2.3], the Emax at JHR (GCE:TAI) [3] was determined as 88%.
For the molecule `OC(COc1ccc2cc(Br)ccc2c1)Cn1cccn1` (stereo not shown) [cmpd 2.9], the Emax at JHR (GCE:TAI) [3] came to 70%; at human AHR [4] it was 19%.
For `CN(C(=O)CN1CCOC(c2nccs2)C1)c1nccs1` (stereo not shown) [cmpd 1.4], the Emax at JHR (GCE:TAI) [1] came out at 266%.
Take `Cc1c(C(=O)NCCc2cccnc2)oc2ccc(F)cc12` [cmpd 2.8]: the Emax was found to be 126% on JHR (GCE:TAI) [3] and 87% on human AHR [4].
Turning to `CC(Sc1nccn1C)C(=O)Nc1nc(-c2ccccc2)cs1` (stereo not shown) [cmpd 2.2], the values for the Emax at JHR (GCE:TAI) [3] and on human AHR [4] were 110% and 103%, respectively.
For `CC(COc1ccc(Oc2ccccc2)cc1)Oc1ccccn1` (stereo not shown) [pyriproxyfen], the Emax at JHR (GCE:TAI) [3] was 62%.
As for `CC(C)c1c(C(=O)NCC2CCCO2)nnn1-c1ccc(Br)cc1` (stereo not shown) [cmpd 1.3], the Emax on JHR (GCE:TAI) [1] turned out to be 254%.
On to `CC(NC(=O)CSCc1ccccc1)c1ccc(-n2ccnc2)cc1` (stereo not shown) [cmpd 2.12], for which the Emax on JHR (GCE:TAI) [3] is 109%; at human AHR [4], 45%.
On to `O=C(NCCCn1cccn1)c1ccc(C2CCCCC2)cc1` [cmpd 2.6], for which the Emax at JHR (GCE:TAI) [3] was 76%; at human AHR [4], 14%.
`Cc1c(C(=O)Nc2ccc3ncccc3c2)sc2ccccc12` [2.7, cmpd 2.7]: the Emax at JHR (GCE:TAI) [1] is 85%.
For `Cc1csc(CCNC(=O)c2cnc(-c3ccccc3)nc2)n1` [cmpd 2.10], the figures for the Emax on JHR (GCE:TAI) [3] and on human AHR [4] were 128% and 30%, respectively.

The record behind these values is paper doi:10.1101/2024.01.03.574093v2 (biorxiv, 2024).
